Earlier results in paper PMC9851200, “Multiparameter phenotypic screening for endogenous TFEB and TFE3 translocation identifies novel chemical series modulating lysosome function” (Autophagy, 2022).

Tests used:
Design in all cases: method as in original PKIS2 published data
[1] = target: T1, kinases (KINOMEscan panel) (Homo sapiens, UniProt O95835); conditions: LATS1; Published KINOMEscan; ref original PKIS2 published data; cited from earlier work
T1 sequence (O95835 1-1130): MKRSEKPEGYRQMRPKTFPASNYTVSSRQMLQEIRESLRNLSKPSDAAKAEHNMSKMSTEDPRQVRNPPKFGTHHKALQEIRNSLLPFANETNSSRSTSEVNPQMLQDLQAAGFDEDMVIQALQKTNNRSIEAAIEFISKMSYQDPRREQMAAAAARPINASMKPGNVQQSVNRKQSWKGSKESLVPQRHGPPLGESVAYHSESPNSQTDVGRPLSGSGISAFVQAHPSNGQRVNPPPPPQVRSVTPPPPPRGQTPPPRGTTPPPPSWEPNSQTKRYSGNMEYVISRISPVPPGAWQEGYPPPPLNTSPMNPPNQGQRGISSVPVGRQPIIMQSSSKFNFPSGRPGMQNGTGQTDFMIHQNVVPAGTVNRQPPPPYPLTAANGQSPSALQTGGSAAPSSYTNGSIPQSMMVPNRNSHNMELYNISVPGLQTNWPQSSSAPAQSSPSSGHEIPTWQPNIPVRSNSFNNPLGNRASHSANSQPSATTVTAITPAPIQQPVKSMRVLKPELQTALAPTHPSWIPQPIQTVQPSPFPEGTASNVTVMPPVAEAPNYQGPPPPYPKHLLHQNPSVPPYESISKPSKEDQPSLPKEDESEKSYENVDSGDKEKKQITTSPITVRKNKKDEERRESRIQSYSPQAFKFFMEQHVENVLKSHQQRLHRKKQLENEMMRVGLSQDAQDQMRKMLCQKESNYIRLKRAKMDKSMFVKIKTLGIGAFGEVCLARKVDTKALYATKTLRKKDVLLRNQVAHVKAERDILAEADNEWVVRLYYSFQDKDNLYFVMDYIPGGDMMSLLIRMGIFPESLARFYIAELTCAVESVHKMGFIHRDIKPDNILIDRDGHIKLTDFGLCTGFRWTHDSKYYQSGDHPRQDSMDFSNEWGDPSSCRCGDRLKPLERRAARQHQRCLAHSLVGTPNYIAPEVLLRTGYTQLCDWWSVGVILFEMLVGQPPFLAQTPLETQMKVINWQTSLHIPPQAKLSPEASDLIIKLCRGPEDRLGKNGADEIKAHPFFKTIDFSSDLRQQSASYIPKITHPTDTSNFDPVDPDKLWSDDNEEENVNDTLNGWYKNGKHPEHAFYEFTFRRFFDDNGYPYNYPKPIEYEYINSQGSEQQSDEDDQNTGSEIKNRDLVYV

[2] = target: T2, kinases (KINOMEscan panel) (Homo sapiens, UniProt Q09013); conditions: kinase DMPK; Published KINOMEscan; ref original PKIS2 published data; cited from earlier work
T2 sequence (Q09013 1-629): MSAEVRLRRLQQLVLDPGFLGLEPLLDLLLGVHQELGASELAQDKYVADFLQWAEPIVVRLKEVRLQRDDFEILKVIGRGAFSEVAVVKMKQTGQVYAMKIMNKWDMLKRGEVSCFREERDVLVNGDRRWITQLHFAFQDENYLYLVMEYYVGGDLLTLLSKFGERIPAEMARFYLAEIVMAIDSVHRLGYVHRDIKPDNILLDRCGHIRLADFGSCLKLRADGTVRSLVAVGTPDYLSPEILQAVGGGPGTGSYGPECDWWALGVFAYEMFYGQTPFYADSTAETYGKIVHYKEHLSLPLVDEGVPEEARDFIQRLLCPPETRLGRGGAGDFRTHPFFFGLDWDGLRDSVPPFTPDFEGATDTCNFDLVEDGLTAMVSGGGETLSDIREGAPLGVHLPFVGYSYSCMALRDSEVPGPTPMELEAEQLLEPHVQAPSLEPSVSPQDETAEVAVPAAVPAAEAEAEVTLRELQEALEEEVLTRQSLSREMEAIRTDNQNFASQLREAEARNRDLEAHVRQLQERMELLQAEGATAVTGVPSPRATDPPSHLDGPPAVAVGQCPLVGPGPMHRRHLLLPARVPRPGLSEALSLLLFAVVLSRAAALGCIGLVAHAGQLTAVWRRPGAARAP

[3] = target: kinases (KINOMEscan panel) (Homo sapiens, UniProt P24941); conditions: CDK2; Published KINOMEscan; ref original PKIS2 published data; cited from earlier work
[4] = target: kinases (KINOMEscan panel) (Homo sapiens, UniProt Q9UEW8); conditions: Published KINOMEscan; ref original PKIS2 published data; cited from earlier work
[5] = target: kinases (KINOMEscan panel) (Homo sapiens, UniProt Q07912); conditions: TNK2; Published KINOMEscan; ref original PKIS2 published data; cited from earlier work
[6] = target: T3, kinases (KINOMEscan panel) (Homo sapiens, UniProt P35626); conditions: GRK3; Published KINOMEscan; ref original PKIS2 published data; cited from earlier work
T3 sequence (P35626 1-688): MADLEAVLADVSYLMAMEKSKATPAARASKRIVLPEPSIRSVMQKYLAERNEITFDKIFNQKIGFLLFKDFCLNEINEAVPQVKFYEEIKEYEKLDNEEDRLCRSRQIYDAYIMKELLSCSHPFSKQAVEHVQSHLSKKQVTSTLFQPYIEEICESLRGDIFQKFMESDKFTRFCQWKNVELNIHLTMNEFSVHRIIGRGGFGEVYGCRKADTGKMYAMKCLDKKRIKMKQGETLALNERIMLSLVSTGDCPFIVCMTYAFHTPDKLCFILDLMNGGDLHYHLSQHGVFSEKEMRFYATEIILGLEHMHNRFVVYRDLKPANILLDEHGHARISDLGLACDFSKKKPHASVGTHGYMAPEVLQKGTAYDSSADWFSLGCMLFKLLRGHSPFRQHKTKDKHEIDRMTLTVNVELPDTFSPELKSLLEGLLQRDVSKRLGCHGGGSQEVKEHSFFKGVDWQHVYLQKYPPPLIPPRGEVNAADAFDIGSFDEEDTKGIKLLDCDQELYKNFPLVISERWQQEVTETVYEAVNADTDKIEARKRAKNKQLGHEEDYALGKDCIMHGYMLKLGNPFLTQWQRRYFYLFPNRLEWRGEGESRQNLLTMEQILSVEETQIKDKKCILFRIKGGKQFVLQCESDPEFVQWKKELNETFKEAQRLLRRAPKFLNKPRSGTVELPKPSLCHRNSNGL

Chain of kinases (KINOMEscan panel) (Homo sapiens, UniProt Q07912) (Q07912 whole entry): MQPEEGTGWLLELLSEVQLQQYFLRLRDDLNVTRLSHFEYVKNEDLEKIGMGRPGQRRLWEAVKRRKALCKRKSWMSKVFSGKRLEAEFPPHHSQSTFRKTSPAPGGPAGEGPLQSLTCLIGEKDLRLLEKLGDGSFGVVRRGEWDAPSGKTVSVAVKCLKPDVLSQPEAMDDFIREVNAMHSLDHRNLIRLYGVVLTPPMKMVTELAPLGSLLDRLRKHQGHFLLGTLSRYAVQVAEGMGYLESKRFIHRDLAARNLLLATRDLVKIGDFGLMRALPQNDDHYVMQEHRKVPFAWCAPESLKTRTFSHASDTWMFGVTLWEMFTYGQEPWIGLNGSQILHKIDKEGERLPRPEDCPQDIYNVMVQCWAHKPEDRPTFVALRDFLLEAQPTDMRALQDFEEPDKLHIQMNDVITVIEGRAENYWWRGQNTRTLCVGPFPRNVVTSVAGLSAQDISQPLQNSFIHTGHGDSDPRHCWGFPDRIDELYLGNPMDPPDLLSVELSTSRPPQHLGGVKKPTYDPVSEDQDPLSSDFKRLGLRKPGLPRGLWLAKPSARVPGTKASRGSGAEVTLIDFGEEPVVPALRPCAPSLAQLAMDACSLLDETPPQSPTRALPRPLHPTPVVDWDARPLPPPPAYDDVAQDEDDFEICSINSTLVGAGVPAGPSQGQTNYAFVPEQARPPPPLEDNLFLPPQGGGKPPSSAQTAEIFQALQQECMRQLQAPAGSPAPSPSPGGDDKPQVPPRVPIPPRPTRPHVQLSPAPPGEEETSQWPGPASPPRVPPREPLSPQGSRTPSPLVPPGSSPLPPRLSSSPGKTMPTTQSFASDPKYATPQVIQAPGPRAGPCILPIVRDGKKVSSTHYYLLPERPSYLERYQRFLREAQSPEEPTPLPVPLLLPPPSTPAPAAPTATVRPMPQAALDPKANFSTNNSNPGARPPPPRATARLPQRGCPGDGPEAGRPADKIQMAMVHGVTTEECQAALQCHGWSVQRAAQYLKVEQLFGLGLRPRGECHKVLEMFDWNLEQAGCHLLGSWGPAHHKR

Cc1cccc(-c2nc(Nc3ccncc3)c3ccccc3n2)n1 [NK215]
KINOMEscan LATS1 [1]: 3
KINOMEscan DMPK [2]: 2
KINOMEscan CDK2 [3]: 0
KINOMEscan STK39 [4]: 0
KINOMEscan TNK2 [5]: 0
KINOMEscan GRK3 [6]: 0
